Data from ChEMBL document CHEMBL1201862, “PubChem BioAssay data set” (2004).
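Results reflect a 48-hour exposure of cells in 96-well plates to compound at five concentrations. At the GI50, growth is halved.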 The source made the active and inactive calls. No stated cut-off is given here; in the data, active = GI50 up to about 1.1 µM and inactive = higher.

Experiments:
Experiment in all cases: DTP human tumour cell line panel, 48 h
LXFL 529 = system: LXFL 529
KM-20L2 = system: KM-20L2
M19-MEL = system: M19-MEL
SNB-78 = system: SNB-78
XF498 = system: XF498
RXF 631 = system: RXF 631
DLD-1 = system: DLD-1
HOP-18 = system: HOP-18
BT-549 = system: BT-549

Measured: GI50

COc1ccc2nc3cc(Cl)ccc3c(NCCC(=O)OCC(O)C(O)C(O[C@H](C)C(=O)NC(C)C(=O)NC(CCC(N)=O)C(=O)OCc3ccccc3)C(C=O)NC(C)=O)c2c1 (some centres not stated)
inactive: LXFL 529 17.3 µM | KM-20L2 17.2 µM | M19-MEL 18 µM | SNB-78 32.5 µM | XF498 18.5 µM | RXF 631 19.6 µM | DLD-1 17.4 µM

O=C1c2ccccc2C2(O)Oc3cccc(O)c3C12O (configuration not stated)
inactive: LXFL 529 > 100 µM | KM-20L2 > 100 µM | M19-MEL > 100 µM | SNB-78 > 100 µM | RXF 631 > 100 µM | HOP-18 > 100 µM | DLD-1 > 100 µM

CCOC(=O)NN1C(=O)C(=P(c2ccccc2)(c2ccccc2)c2ccccc2)C(C(=O)OCC)=C1C
inactive: LXFL 529 > 100 µM | KM-20L2 > 100 µM | M19-MEL > 100 µM | SNB-78 > 100 µM | XF498 > 100 µM | RXF 631 > 100 µM | DLD-1 > 100 µM

Cc1cccc(C(C)C)c1NC(=O)CC1C(=O)Nc2ccccc2S1(=O)=O (configuration not stated)
inactive: LXFL 529 16.7 µM | KM-20L2 18.1 µM | M19-MEL 18.6 µM | SNB-78 17.7 µM | XF498 27.6 µM | RXF 631 13.4 µM | HOP-18 26.4 µM | DLD-1 9.25 µM

Fc1cccc(C2SCc3nc4ccccc4n32)c1F (configuration not stated)
inactive: LXFL 529 40.9 µM | KM-20L2 > 100 µM | M19-MEL 43.9 µM | SNB-78 32.6 µM | RXF 631 16.4 µM | HOP-18 56.1 µM | DLD-1 > 100 µM

CCCCNC(=O)C1C2CCC(O2)C1C(=O)O (configuration not stated)
inactive: LXFL 529 16 µM | KM-20L2 6.24 µM | M19-MEL 19.3 µM | SNB-78 32.9 µM | XF498 3.41 µM | RXF 631 32.5 µM | HOP-18 30.4 µM | DLD-1 20.2 µM

CSc1nc2c(nc(N)n2C2OCC(O)C(O)C2O)c(=O)n1C (configuration not stated)
inactive: LXFL 529 > 100 µM | KM-20L2 > 100 µM | M19-MEL > 100 µM | SNB-78 > 100 µM | XF498 > 100 µM | RXF 631 > 100 µM | HOP-18 > 100 µM | DLD-1 > 100 µM

COc1ccc(C(=O)C(c2ccc(OC)cc2)C2C(=O)Oc3ccccc32)cc1 (configuration not stated)
inactive: LXFL 529 > 10 µM | KM-20L2 > 10 µM | M19-MEL > 10 µM | SNB-78 67.9 µM | XF498 > 10 µM | RXF 631 > 10 µM | HOP-18 59.4 µM | DLD-1 > 10 µM

O=C(O)c1cc2ccc(Cl)cc2c(O)c1C1=CCCCC1
inactive: LXFL 529 35.3 µM | KM-20L2 51.6 µM | M19-MEL 35.8 µM | SNB-78 27.4 µM | XF498 18.7 µM | RXF 631 32.1 µM | HOP-18 60.5 µM | DLD-1 41.7 µM

O=C(Cc1ccccc1)C(c1ccccc1)S(=O)(=O)c1ccccc1 (configuration not stated)
inactive: LXFL 529 87.1 µM | KM-20L2 > 100 µM | M19-MEL > 100 µM | SNB-78 97.7 µM | XF498 > 100 µM | RXF 631 > 100 µM | HOP-18 85.5 µM | DLD-1 > 100 µM

COc1ccc(NC(=O)CC(=O)N/N=C/c2ccc(N(CCC#N)S(=O)(=O)c3ccccc3)cc2)cc1
inactive: LXFL 529 > 100 µM | KM-20L2 > 100 µM | M19-MEL > 100 µM | SNB-78 > 100 µM | XF498 > 100 µM | RXF 631 > 100 µM | HOP-18 > 100 µM | DLD-1 > 100 µM

O=C1Nc2ccc(Br)cc2/C1=N/Nc1ccc([N+](=O)[O-])cc1
inactive: LXFL 529 22.8 µM | KM-20L2 72.1 µM | M19-MEL 17.1 µM | SNB-78 18.9 µM | XF498 23.7 µM | RXF 631 17.3 µM | HOP-18 17.7 µM | DLD-1 31.5 µM

OC1C2C=CCC1CCC2 (configuration not stated)
inactive: KM-20L2 > 100 µM | M19-MEL > 100 µM | SNB-78 > 100 µM | XF498 > 100 µM | RXF 631 > 100 µM | HOP-18 > 100 µM | DLD-1 > 100 µM

Cc1ccccc1Nc1nc2c(s1)C(=O)c1ccccc1C2=O
inactive: LXFL 529 4.61 µM | KM-20L2 28.6 µM | M19-MEL 1.95 µM | BT-549 2.46 µM | SNB-78 12.8 µM | XF498 15.6 µM | HOP-18 12.4 µM | DLD-1 5.73 µM
